Assay results from ChEMBL document CHEMBL5665443, “Enzyme Inhibitor Single Concentration assay results for EUbOPEN Chemogenomics Library” (2024).

What was measured:
[1] = target: T1, Endonuclease III-like protein 1 (Homo sapiens) (UniProt P78549); conditions: Hit No;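 further: enzyme assay tracking NTHL1 cutting and release of a quenched double-stranded DNA oligo substrate, read as fluorescence at 594 nm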
T1 sequence (whole entry): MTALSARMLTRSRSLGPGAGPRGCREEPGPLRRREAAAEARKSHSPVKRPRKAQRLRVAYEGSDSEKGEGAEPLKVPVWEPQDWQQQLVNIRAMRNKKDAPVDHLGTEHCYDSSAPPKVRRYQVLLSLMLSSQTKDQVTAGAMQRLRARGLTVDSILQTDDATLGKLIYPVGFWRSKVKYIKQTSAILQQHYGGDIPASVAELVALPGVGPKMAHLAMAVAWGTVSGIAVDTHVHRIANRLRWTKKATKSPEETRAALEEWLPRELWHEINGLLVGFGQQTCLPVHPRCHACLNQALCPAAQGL
Description: Inhibition of NTHL1 by quantifying inhibition of NTHL1-mediated cleavage and dissociation of quenched duplex DNA oligonucleotides, measured as fluorescence at 594 nm.

[2] = target: Methyl-CpG-binding domain protein 4 (Homo sapiens) (UniProt O95243); conditions: Hit No;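 further: MBD4 activity read as fluorescence at 594 nm from cleavage and release of a quenched duplex DNA oligonucleotide, with APE1 coupled to incise the strand and raise turnover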
Chain of Methyl-CpG-binding domain protein 4 (Homo sapiens) (O95243 whole entry, the tested form may be a part): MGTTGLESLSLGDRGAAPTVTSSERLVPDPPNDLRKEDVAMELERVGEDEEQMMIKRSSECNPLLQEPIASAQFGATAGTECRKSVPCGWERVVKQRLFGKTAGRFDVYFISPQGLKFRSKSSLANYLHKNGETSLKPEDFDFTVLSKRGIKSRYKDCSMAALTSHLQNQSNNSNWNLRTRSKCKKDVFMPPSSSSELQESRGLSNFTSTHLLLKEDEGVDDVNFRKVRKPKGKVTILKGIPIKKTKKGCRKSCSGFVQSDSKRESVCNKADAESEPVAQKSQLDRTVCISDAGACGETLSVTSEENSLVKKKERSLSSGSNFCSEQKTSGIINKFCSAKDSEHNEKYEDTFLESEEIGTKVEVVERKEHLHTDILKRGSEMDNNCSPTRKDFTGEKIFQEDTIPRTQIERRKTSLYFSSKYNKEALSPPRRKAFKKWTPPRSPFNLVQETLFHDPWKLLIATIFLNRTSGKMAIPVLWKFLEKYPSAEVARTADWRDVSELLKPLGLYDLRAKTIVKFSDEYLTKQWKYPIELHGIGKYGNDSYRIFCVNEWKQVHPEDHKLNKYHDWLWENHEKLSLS
Description: Inhibition of MBD4 by quantifying inhibition of MBD4-mediated cleavage and dissociation of quenched duplex DNA oligonucleotides, measured as fluorescence at 594 nm. To generate a functional strand incision and increase turn-over this assay is coupled to APE1.

[3] = target: Endonuclease 8-like 1 (Homo sapiens) (UniProt Q96FI4); conditions: Hit No;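 further: fluorescence at 594 nm from quenched duplex DNA oligonucleotides released by NEIL1 cleavage and strand separation, reported as reduction of this enzyme activity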
Chain of Endonuclease 8-like 1 (Homo sapiens) (Q96FI4 whole entry): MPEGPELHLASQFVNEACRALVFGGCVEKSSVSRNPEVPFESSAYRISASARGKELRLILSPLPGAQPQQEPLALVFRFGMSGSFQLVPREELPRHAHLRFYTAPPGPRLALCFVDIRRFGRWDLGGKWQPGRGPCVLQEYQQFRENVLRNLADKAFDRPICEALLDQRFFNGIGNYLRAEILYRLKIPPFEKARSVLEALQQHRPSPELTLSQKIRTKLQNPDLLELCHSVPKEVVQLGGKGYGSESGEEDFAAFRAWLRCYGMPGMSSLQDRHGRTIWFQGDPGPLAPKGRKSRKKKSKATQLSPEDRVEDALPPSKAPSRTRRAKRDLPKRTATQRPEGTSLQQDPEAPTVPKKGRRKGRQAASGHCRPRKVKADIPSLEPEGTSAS
Description: Inhibition of NEIL1 by quantifying inhibition of NEIL1-mediated cleavage and dissociation of quenched duplex DNA oligonucleotides, measured as fluorescence at 594 nm.

[4] = target: N-glycosylase/DNA lyase (Homo sapiens) (UniProt O15527); conditions: Hit No;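 further: OGG1 cleavage of a quenched duplex DNA oligonucleotide, coupled to APE1 for strand incision, read as fluorescence at 594 nm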
Chain of N-glycosylase/DNA lyase (Homo sapiens) (O15527 whole entry): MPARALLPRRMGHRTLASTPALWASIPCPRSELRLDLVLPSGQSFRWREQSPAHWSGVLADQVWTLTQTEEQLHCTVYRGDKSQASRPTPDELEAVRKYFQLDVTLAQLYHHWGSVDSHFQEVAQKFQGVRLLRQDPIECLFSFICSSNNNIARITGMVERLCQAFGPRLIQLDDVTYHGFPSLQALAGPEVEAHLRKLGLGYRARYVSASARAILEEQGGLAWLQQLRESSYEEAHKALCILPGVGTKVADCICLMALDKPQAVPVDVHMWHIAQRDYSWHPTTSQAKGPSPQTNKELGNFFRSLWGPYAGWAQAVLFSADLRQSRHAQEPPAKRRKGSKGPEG
Description: Inhibition of OGG1 by quantifying inhibition of OGG1-mediated cleavage and dissociation of quenched duplex DNA oligonucleotides, measured as fluorescence at 594 nm. To generate a functional strand incision and increase turn-over this assay is coupled to APE1.

[5] = target: G/T mismatch-specific thymine DNA glycosylase (Homo sapiens) (UniProt Q13569); conditions: Hit No;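 further: human TDG cleavage of quenched duplex DNA oligonucleotides coupled to APE1, strand release read as fluorescence at 594 nm, inhibition of TDG activity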
Chain of G/T mismatch-specific thymine DNA glycosylase (Homo sapiens) (Q13569 whole entry): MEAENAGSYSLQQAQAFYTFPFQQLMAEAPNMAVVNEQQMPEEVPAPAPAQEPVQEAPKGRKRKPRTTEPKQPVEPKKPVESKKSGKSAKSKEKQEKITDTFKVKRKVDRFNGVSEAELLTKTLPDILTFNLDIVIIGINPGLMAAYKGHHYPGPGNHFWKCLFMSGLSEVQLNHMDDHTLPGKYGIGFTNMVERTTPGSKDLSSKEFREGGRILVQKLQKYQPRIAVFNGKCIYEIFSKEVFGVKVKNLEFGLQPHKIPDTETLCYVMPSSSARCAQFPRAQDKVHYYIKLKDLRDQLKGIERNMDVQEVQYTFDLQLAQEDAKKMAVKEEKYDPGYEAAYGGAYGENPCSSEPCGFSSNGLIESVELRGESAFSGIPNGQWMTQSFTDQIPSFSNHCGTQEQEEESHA
Description: Inhibition of TDG by quantifying inhibition of TDG-mediated cleavage and dissociation of quenched duplex DNA oligonucleotides, measured as fluorescence at 594 nm. To generate a functional strand incision and increase turn-over this assay is coupled to APE1.

[6] = target: Uracil-DNA glycosylase (Homo sapiens) (UniProt P13051); conditions: Hit No;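 further: UNG excision on a quenched double-stranded DNA oligo probe, with APE1 added for strand incision and turnover, read as fluorescence at 594 nm as strands separate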
Chain of Uracil-DNA glycosylase (Homo sapiens) (P13051 whole entry): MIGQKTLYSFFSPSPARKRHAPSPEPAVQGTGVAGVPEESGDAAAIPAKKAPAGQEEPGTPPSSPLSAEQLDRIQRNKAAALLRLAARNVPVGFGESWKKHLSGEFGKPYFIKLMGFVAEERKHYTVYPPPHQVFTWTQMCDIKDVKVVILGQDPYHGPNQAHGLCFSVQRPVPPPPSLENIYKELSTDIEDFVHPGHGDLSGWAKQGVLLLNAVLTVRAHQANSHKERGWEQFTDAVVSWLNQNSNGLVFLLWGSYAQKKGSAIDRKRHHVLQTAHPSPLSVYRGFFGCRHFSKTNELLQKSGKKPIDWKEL
Description: Inhibition of UNG by quantifying inhibition of UNG-mediated cleavage and dissociation of quenched duplex DNA oligonucleotides, measured as fluorescence at 594 nm. To generate a functional strand incision and increase turn-over this assay is coupled to APE1.

[7] = target: T2, Single-strand selective monofunctional uracil DNA glycosylase (Homo sapiens) (UniProt Q53HV7); conditions: Hit No;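 further: enzymatic SMUG1 assay coupled with APE1, reading fluorescence at 594 nm released when a quenched double-stranded DNA oligonucleotide substrate is cleaved and separated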
T2 sequence (whole entry): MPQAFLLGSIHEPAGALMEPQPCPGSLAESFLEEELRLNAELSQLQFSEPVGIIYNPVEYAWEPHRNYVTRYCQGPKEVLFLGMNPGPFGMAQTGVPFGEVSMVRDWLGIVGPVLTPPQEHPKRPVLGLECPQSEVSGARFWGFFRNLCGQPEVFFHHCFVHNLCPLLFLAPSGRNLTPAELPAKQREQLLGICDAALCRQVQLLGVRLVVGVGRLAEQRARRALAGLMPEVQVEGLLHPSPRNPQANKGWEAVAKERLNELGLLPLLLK
Description: Inhibition of SMUG1 by quantifying inhibition of SMUG1-mediated cleavage and dissociation of quenched duplex DNA oligonucleotides, measured as fluorescence at 594 nm. To generate a functional strand incision and increase turn-over this assay is coupled to APE1.

[8] = target: T3, Endonuclease 8-like 2 (Homo sapiens) (UniProt Q969S2); conditions: Compound Concentration 10.0 uM, Hit No;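 further: fluorescence at 594 nm reports NEIL2 cutting and release of a quenched double-stranded DNA oligo substrate, reduced signal read as inhibition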
T3 sequence (whole entry): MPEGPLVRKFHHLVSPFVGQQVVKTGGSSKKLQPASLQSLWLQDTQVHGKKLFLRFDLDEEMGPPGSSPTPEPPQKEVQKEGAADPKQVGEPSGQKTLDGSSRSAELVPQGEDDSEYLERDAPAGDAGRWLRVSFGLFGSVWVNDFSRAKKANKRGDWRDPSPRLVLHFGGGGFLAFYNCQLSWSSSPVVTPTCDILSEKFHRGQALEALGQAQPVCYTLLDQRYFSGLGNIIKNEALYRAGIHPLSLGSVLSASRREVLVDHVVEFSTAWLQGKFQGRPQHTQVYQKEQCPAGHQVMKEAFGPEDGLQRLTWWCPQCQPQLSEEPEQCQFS
Description: Inhibition of NEIL2 by quantifying inhibition of NEIL2-mediated cleavage and dissociation of quenched duplex DNA oligonucleotides, measured as fluorescence at 594 nm.

Cc1n[nH]c2ncc(C(=O)N3CCC[C@H]3c3ccc(Cl)cc3)cc12
inhibition ([1]; Compound Concentration 1.0 uM): 7.06% | inhibition ([2]; Compound Concentration 1.0 uM): 9.29% | inhibition ([3]; Compound Concentration 1.0 uM): -3.69% | inhibition ([4]; Compound Concentration 1.0 uM): -6.69% | inhibition ([5]; Compound Concentration 1.0 uM): 31.7% | inhibition ([6]; Compound Concentration 1.0 uM): -1.69% | inhibition ([7]; Compound Concentration 1.0 uM): 8.72%

Cc1cc(C)c(S(=O)(=O)N(Cc2ccc(-c3cccc(S(C)(=O)=O)c3)cc2)Cc2ccc(C(F)(F)F)o2)c(C)c1
inhibition ([1]; Compound Concentration 10.0 uM): 5.94% | inhibition ([2]; Compound Concentration 10.0 uM): 60.3% | inhibition ([4]; Compound Concentration 10.0 uM): -3.9% | inhibition ([5]; Compound Concentration 10.0 uM): 97.7% | inhibition ([6]; Compound Concentration 10.0 uM): -2.84% | inhibition ([7]; Compound Concentration 10.0 uM): 7.91% | inhibition [8]: -8.4%

CSc1cccnc1N1CCN(Cc2nc3ccccc3[nH]2)CC1
inhibition ([1]; Compound Concentration 10.0 uM): -5.89% | inhibition ([2]; Compound Concentration 10.0 uM): 54.7% | inhibition ([4]; Compound Concentration 10.0 uM): 6.57% | inhibition ([5]; Compound Concentration 10.0 uM): 19.8% | inhibition ([6]; Compound Concentration 10.0 uM): 0.535% | inhibition ([7]; Compound Concentration 10.0 uM): 6.69%

CC(C)(C)OC(=O)N1CCCC1CNC1CCC(c2cc(F)ccc2F)(S(=O)(=O)c2ccc(Cl)cc2)CC1 (stereo not given)
inhibition ([1]; Compound Concentration 10.0 uM): -1.29% | inhibition ([2]; Compound Concentration 10.0 uM): 45.5% | inhibition ([4]; Compound Concentration 10.0 uM): 4.85% | inhibition ([5]; Compound Concentration 10.0 uM): 17.3% | inhibition ([6]; Compound Concentration 10.0 uM): 1.86% | inhibition ([7]; Compound Concentration 10.0 uM): 19.7%

CNC[C@H](O)c1cccc(O)c1
inhibition ([1]; Compound Concentration 10.0 uM): -9.8% | inhibition ([2]; Compound Concentration 10.0 uM): -3.74% | inhibition ([3]; Compound Concentration 10.0 uM): -4.8% | inhibition ([4]; Compound Concentration 10.0 uM): -3.42% | inhibition ([5]; Compound Concentration 10.0 uM): -5.83% | inhibition ([7]; Compound Concentration 10.0 uM): -2.99% | inhibition [8]: 7.25%

COc1cccc(CNC(=O)c2nc3scc(CN(C)Cc4ccccc4)c3c(=O)[nH]2)c1
inhibition ([1]; Compound Concentration 10.0 uM): -9.83% | inhibition ([2]; Compound Concentration 10.0 uM): 59.5% | inhibition ([3]; Compound Concentration 10.0 uM): -6.05% | inhibition ([4]; Compound Concentration 10.0 uM): 4.36% | inhibition ([5]; Compound Concentration 10.0 uM): 43.2% | inhibition ([6]; Compound Concentration 10.0 uM): 2.11% | inhibition ([7]; Compound Concentration 10.0 uM): 12.8%

COc1ccnc(N2CCC3(CCCN(Cc4c[nH]c5ccccc45)C3=O)CC2)n1
inhibition ([1]; Compound Concentration 10.0 uM): 6.32% | inhibition ([2]; Compound Concentration 10.0 uM): -0.547% | inhibition ([3]; Compound Concentration 10.0 uM): 9.14% | inhibition ([4]; Compound Concentration 10.0 uM): -2.11% | inhibition ([5]; Compound Concentration 10.0 uM): 4.73% | inhibition ([7]; Compound Concentration 10.0 uM): 15.5% | inhibition [8]: -0.983%

O=C(c1ccc(F)cc1)N1CC(COc2ccc(Br)cc2)(C(=O)O)C1
inhibition ([1]; Compound Concentration 1.0 uM): 0.685% | inhibition ([2]; Compound Concentration 1.0 uM): 67.1% | inhibition ([3]; Compound Concentration 1.0 uM): -7.26% | inhibition ([4]; Compound Concentration 1.0 uM): -9.75% | inhibition ([5]; Compound Concentration 1.0 uM): 52.8% | inhibition ([6]; Compound Concentration 1.0 uM): 0.879% | inhibition ([7]; Compound Concentration 1.0 uM): 15.2%

CC(C)c1c(NC(=O)Nc2ccc(Cl)cc2)c(=O)n(-c2ccccc2)n1C
inhibition ([1]; Compound Concentration 10.0 uM): 12.9% | inhibition ([2]; Compound Concentration 10.0 uM): 31.2% | inhibition ([3]; Compound Concentration 10.0 uM): 4.99% | inhibition ([4]; Compound Concentration 10.0 uM): -7% | inhibition ([5]; Compound Concentration 10.0 uM): -4.69% | inhibition ([7]; Compound Concentration 10.0 uM): -6.14% | inhibition [8]: -6.97%

C[C@H](c1ccnc(Nc2nc3ccc(-c4cc(N(C)C)ncn4)cc3[nH]2)c1)N1CCN(C(=O)CC(F)(F)F)CC1
inhibition ([1]; Compound Concentration 10.0 uM): -3.92% | inhibition ([2]; Compound Concentration 10.0 uM): 37.6% | inhibition ([4]; Compound Concentration 10.0 uM): -2.48% | inhibition ([5]; Compound Concentration 10.0 uM): 87.4% | inhibition ([6]; Compound Concentration 10.0 uM): 1.7% | inhibition ([7]; Compound Concentration 10.0 uM): 11.6% | inhibition [8]: -5.59%

CCCCCCCCCCCCC/C=C/[C@@H](O)[C@@H](N)COP(=O)([O-])OCC[N+](C)(C)C
inhibition ([1]; Compound Concentration 10.0 uM): -8.51% | inhibition ([2]; Compound Concentration 10.0 uM): -8.69% | inhibition ([4]; Compound Concentration 10.0 uM): 5.72% | inhibition ([6]; Compound Concentration 10.0 uM): -1% | inhibition ([7]; Compound Concentration 10.0 uM): -8.04% | inhibition [8]: -4.94%

O=C(NCCCn1ccnc1)c1cc2nc(-c3ccccc3)cc(-c3ccccc3)n2n1
inhibition ([1]; Compound Concentration 10.0 uM): -4.57% | inhibition ([2]; Compound Concentration 10.0 uM): 28.3% | inhibition ([4]; Compound Concentration 10.0 uM): -1.93% | inhibition ([5]; Compound Concentration 10.0 uM): 44.7% | inhibition ([6]; Compound Concentration 10.0 uM): 4.11% | inhibition ([7]; Compound Concentration 10.0 uM): 12% | inhibition [8]: -9.67%

CN([C@@H]1CCc2c(CC(=O)O)c3ccccc3n2C1)S(=O)(=O)c1ccc(F)cc1
inhibition ([1]; Compound Concentration 10.0 uM): 10.6% | inhibition ([2]; Compound Concentration 10.0 uM): 28.2% | inhibition ([4]; Compound Concentration 10.0 uM): 5.88% | inhibition ([5]; Compound Concentration 10.0 uM): 9.01% | inhibition ([6]; Compound Concentration 10.0 uM): 2.73% | inhibition ([7]; Compound Concentration 10.0 uM): 15.5% | inhibition [8]: -4.06%

CN(C)C(=O)Cn1cc(-c2nc(C3(c4ccc(-c5cnc(N)nc5)cc4)CC3)no2)cn1
inhibition ([1]; Compound Concentration 10.0 uM): -5.89% | inhibition ([2]; Compound Concentration 10.0 uM): 22.8% | inhibition ([4]; Compound Concentration 10.0 uM): 28.7% | inhibition ([5]; Compound Concentration 10.0 uM): 43.7% | inhibition ([6]; Compound Concentration 10.0 uM): 1.06% | inhibition ([7]; Compound Concentration 10.0 uM): 11.1% | inhibition [8]: 0.0213%
